Laboratory results published in PMC12152147, “DDB1 engagement defines the selectivity of S656 analogs for cyclin K degradation over CDK inhibition” (EMBO Reports, 2025).
Where “and” joins values, the source holds several entries; their conditions need not be identical. Equal values may be shown once. Read-outs that look alike come from different tables or passages of the source.

Key:
CDK12/Cyclin K = target: T1, CDK12/Cyclin K (Homo sapiens, UniProt Q9NYV4); assay: CDK12/CyclinK in vitro kinase assay (BPS kit, Kinase Glo MAX); type: biochemical; settings: for in vitro inhibition of CDK12/Cyclin K activity: in % (unit assumed)
T1 construct: purchased BPS Bioscience 78298
Protocol: Kinase activity was assessed using the kinase assay kits from BPS Bioscience for CDK1, CDK9 and CDK12 with Kinase Glo MAX in duplicates. Compounds were tested at a single concentration of 1 μM for CDK1 and CDK9 activity, and in a dilution ranging from 0.64 nM to 50 μM for CDK12 activity. Chemiluminescence was read using the Neo Synergy BioTek plate reader.

primary AML specimens = assay: Dose-response assays in primary AML specimens (6 days, CellTiterGlo); type: cell-based, human; settings: Homo sapiens, 144 h, 6 days, read-out: IC50
In short: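 Primary AML cells in IMDM/15% BIT with SCF, FLT3L, IL3, G-CSF, SR1 and UM729 were exposed to 8-point 1:4 dilutions (10 μM to 0.5 nM) for 6 days. Viability came from CellTiterGlo luminescence, with % inhibition versus DMSO (0.1%) fitted by nonlinear regression.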

cyclin KeGFP = assay: Cyclin KeGFP reporter system (eGFP/mCherry MFI by flow cytometry); type: cell-based, H. sapiens; settings: OCI-AML5 G7 clone, 3 h, 10 μM; normalized to DMSO (=100)
In short: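 OCI-AML5 clone G7 carrying lentiviral cyclin KeGFP/mCherry reporter. eGFP and mCherry geometric MFI measured by flow cytometry; eGFP/mCherry ratio normalized to DMSO-treated cells.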

[1] = tested on: OCI-AML5 cells expressing shRNA targeting CUL4A or CUL4B; assay: Dose response in OCI-AML5 expressing shRNAs targeting CUL4A, CUL4B or control; type: cell-based, H. sapiens; settings: OCI-AML5, 4 days

T1 sequence (Q9NYV4 whole entry): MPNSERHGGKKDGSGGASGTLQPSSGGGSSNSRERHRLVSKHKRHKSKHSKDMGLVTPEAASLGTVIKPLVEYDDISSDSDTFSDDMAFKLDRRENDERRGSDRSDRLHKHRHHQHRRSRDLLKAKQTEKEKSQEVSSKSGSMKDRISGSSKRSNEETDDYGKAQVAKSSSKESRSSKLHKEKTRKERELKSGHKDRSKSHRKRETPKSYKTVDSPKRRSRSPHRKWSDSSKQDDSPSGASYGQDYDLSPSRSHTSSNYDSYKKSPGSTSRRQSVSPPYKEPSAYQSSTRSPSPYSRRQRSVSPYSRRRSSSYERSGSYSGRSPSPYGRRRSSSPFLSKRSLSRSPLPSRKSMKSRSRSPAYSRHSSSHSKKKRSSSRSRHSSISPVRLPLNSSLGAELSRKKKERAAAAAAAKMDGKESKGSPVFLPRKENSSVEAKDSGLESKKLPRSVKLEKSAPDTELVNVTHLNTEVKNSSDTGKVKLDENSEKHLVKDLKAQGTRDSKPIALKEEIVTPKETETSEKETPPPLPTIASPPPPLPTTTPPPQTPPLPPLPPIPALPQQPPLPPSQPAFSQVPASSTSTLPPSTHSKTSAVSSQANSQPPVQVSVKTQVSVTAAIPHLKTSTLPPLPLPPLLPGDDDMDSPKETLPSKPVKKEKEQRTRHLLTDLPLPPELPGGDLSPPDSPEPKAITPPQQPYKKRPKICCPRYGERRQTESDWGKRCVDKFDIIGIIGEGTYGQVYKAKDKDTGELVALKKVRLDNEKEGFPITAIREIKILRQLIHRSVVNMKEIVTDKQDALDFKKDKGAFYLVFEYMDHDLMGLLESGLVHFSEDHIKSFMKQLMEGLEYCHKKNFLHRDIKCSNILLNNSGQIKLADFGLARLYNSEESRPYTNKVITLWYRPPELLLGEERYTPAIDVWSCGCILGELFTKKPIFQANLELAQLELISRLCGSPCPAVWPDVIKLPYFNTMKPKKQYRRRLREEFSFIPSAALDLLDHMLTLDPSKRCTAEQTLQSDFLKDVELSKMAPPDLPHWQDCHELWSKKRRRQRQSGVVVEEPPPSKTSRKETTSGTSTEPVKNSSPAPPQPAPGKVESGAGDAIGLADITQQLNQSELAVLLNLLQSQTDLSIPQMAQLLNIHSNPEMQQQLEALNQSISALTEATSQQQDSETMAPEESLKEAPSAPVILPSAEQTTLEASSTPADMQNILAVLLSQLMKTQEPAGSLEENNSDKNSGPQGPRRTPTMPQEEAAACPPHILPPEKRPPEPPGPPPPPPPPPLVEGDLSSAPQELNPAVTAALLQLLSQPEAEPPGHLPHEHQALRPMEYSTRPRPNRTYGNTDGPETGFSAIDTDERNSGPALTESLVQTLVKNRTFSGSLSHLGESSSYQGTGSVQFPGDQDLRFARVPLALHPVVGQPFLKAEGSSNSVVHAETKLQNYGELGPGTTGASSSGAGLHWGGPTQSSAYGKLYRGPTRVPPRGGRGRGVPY
T1 sequence (O75909 whole entry partner): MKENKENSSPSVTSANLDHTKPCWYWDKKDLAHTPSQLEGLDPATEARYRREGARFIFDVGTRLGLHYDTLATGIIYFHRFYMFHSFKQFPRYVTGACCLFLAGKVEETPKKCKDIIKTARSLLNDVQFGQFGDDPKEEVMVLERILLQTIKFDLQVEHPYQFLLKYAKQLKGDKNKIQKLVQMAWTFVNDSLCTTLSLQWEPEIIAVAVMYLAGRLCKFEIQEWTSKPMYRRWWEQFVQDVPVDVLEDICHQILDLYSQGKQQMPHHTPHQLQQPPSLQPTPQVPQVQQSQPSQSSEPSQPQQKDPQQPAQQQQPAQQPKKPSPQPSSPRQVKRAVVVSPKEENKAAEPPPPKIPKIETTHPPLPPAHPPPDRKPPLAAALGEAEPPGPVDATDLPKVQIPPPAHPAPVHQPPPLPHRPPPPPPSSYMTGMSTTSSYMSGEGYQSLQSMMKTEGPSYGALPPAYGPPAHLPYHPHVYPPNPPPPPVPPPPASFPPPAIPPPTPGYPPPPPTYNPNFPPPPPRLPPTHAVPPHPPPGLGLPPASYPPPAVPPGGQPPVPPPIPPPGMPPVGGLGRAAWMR

## CN(C)C/C=C/C(=O)Nc1ccc(C(=O)N2CCC[C@@H](Nc3ncc(Cl)c(-c4c[nH]c5ccccc45)n3)C2)cc1 [THZ531]
CDK12/Cyclin K; Log10 (uM) 0.30103
  in vitro inhibition of CDK12/Cyclin K activity: 95.76 and 74.16 and 142.36
CDK12/Cyclin K; Log10 (uM) -1.09691
  in vitro inhibition of CDK12/Cyclin K activity: 64.02 and 71.5 and 108.97
CDK12/Cyclin K; Log10 (uM) -1.79588
  in vitro inhibition of CDK12/Cyclin K activity: 50.36 and 51.42 and 41.9
CDK12/Cyclin K; Log10 (uM) -2.49485
  in vitro inhibition of CDK12/Cyclin K activity: 37.5 and 37.15 and 28.34
CDK12/Cyclin K; read-out: IC50, in vitro inhibition of CDK12/Cyclin K activity
  IC50: 29 nM
Primary AML specimens; primary AML specimen 03H109
  IC50: 48.9 nM
Primary AML specimens; primary AML specimen 04H055
  IC50: 45.2 nM
Primary AML specimens; primary AML specimen 04H096
  IC50: 44.4 nM
Primary AML specimens; primary AML specimen 04H138
  IC50: 70.6 nM
Primary AML specimens; primary AML specimen 05H113
  IC50: 70.4 nM
Primary AML specimens; primary AML specimen 05H149
  IC50: 411 nM
Primary AML specimens; primary AML specimen 05H193
  IC50: 73.1 nM
Primary AML specimens; primary AML specimen 06H088
  IC50: 50 nM
Primary AML specimens; primary AML specimen 06H117
  IC50: 42.8 nM
Primary AML specimens; primary AML specimen 06H151
  IC50: 103 nM
Primary AML specimens; primary AML specimen 07H003
  IC50: 49.5 nM
Primary AML specimens; primary AML specimen 07H131
  IC50: 734 nM
Primary AML specimens; primary AML specimen 07H144
  IC50: 53.8 nM
Primary AML specimens; primary AML specimen 07H155
  IC50: 125 nM
Primary AML specimens; primary AML specimen 08H018
  IC50: 292 nM
Primary AML specimens; primary AML specimen 08H021
  IC50: 27.7 nM
Primary AML specimens; primary AML specimen 08H056
  IC50: 170 nM
Primary AML specimens; primary AML specimen 08H063
  IC50: 67.2 nM
Primary AML specimens; primary AML specimen 08H085
  IC50: 42.1 nM
Primary AML specimens; primary AML specimen 08H108
  IC50: 48.5 nM
Primary AML specimens; primary AML specimen 08H118
  IC50: 596 nM
Primary AML specimens; primary AML specimen 09H016
  IC50: 121 nM
Primary AML specimens; primary AML specimen 09H070
  IC50: 155 nM
Primary AML specimens; primary AML specimen 10H014
  IC50: 237 nM
Primary AML specimens; primary AML specimen 10H046
  IC50: 319 nM
Primary AML specimens; primary AML specimen 10H107
  IC50: 164 nM
Primary AML specimens; primary AML specimen 10H127
  IC50: 48.2 nM
Primary AML specimens; primary AML specimen 10H161
  IC50: 46.6 nM
Primary AML specimens; primary AML specimen 10H174
  IC50: 146 nM
Primary AML specimens; primary AML specimen 11H008
  IC50: 47.1 nM
Primary AML specimens; primary AML specimen 11H019
  IC50: 174 nM
Primary AML specimens; primary AML specimen 11H170
  IC50: 798 nM
Primary AML specimens; primary AML specimen 11H217
  IC50: 46.2 nM
Primary AML specimens; primary AML specimen 11H232
  IC50: 296 nM
Primary AML specimens; primary AML specimen 12H033
  IC50: 127 nM
Primary AML specimens; primary AML specimen 12H055
  IC50: 51.7 nM
Primary AML specimens; primary AML specimen 12H148
  IC50: 242 nM
Primary AML specimens; primary AML specimen 13H053
  IC50: 160 nM
Primary AML specimens; primary AML specimen 15H045
  IC50: 273 nM
Primary AML specimens; primary AML specimen 17H065
  IC50: 1080 nM
Cyclin KeGFP
  MFI of cyclin KeGFP over mCherry: 103.0 and 93.3 and 92.2 and 93.5
[1]
  potency upon CUL4A or CUL4B downregulation (for SNS-032, THZ531 also DDB1 depletion): remained unaffected
